Source: US12383545B1, “Treatment of migraine” (priority 2018, dated 2025)
Where “and” joins values, the source holds several entries; their conditions need not be identical. Identical values can stand only once.

Test system: participants with episodic migraine
Assay: Study A: phase 3 randomized double-blind placebo-controlled 12-week trial, eDiary efficacy (monthly migraine days, headache days, acute medication use days, responder rates)
Format: in vivo, human
Details: for Change from baseline in mean monthly acute medication use days, LS mean change (SE) / Change from baseline in mean monthly headache days, LS mean change (SE) / Change from baseline in mean monthly migraine days, LS mean change (SE) / Mean monthly acute medication use days, LSMD vs. placebo (95% CI) / Mean monthly headache days, LSMD vs. placebo (95% CI) / Mean monthly migraine days, LSMD vs. placebo (95% CI): across 12-week treatment period; for Change from baseline in mean monthly acute medication use days, LS mean change (SE) / Change from baseline in mean monthly headache days, LS mean change (SE) / Change from baseline in mean monthly migraine days, LS mean change (SE) / Mean monthly acute medication use days, LSMD vs. placebo (95% CI) / Mean monthly headache days, LSMD vs. placebo (95% CI) / Mean monthly migraine days, LSMD vs. placebo (95% CI) / ≥50% reduction in 3-month average of monthly migraine days, odds ratio vs. placebo (95% CI) / ≥50% reduction in 3-month average of monthly migraine days, responder n (%): mITT; for decrease in mean monthly headache days / decrease in monthly migraine days: 12 weeks; for decrease in mean monthly headache days / decrease in monthly migraine days / decrease in mean monthly acute medication use days: given as decrease; for decrease in mean monthly acute medication use days: across 12 weeks; for proportion of participants who reported a migraine day: first full day after study drug administration; for LS mean change from baseline in mean headache days / LS mean reduction from baseline in mean cumulative headache hours: first treatment period; for LS mean change from baseline in acute medication use days / LS mean change from baseline in moderate/severe headache days: first treatment period (weeks 1-4); for Mean change from baseline in weekly migraine days: first week of treatment; for odds ratio vs placebo for reporting a migraine: post dose day 1
Protocol: Study A: A phase 3, multicenter, randomized, double-blind, placebo-controlled, parallel-group study was conducted to evaluate the efficacy, safety, and tolerability of oral atogepant for the prevention of migraine in participants with episodic migraine (EM).
This study comprised a 4-week screening and baseline period, a 12-week double-blind treatment period, and a 4-week follow-up period. The total study duration was 20 weeks.
Adults 18 to 80 years of age with 4 to 14 migraine days per month in the 3 months prior to visit 1, and 4 to 14 migraine days during the 28-day baseline period per electronic Diary, were allowed to enroll. Inclusion criteria included at least a 1-year history of migraine with or without aura consistent with a diagnosis, diagnosed as specified in the International Classification of Headache Disorders, 3rd edition, version (ICHD-3), and the age of the participant at the time of migraine onset was <50 years. Exclusion criteria included a history of migraine accompanied by diplopia or decreased level of consciousness or retinal migraine; a current diagnosis of chronic migraine, new persistent daily headache, trigeminal autonomic cephalgia (e.g., cluster headache), or painful cranial neuropathy as defined by ICHD-3, or if they averaged 15 or more migraine days per month across the 3 months prior to Visit 1 or during the 28-day baseline period; a history of an inadequate response to >4 medications (2 of which have different mechanisms of action) prescribed for the treatment of migraine; and participants with clinically significant hematologic, endocrine, cardiovascular, pulmonary, renal, hepatic, gastrointestinal, or neurologic disease. Use of opioids or barbiturate on more than 2 days per month, triptans or ergots on 10 or more days per month, or simple analgesics (e.g., aspirin, non-steroidal anti-inflammatory drugs, acetaminophen) on 15 or more days per month in the 3 months prior to Visit 1 or during the 28-day baseline period were also excluded. Use of barbiturates was also excluded 30 days prior to screening and throughout the duration of the trial.
Randomization was stratified based on prior exposure (yes/no) to a migraine prevention medication with proven efficacy, such as antiepileptics, tricyclic antidepressants, beta-blockers, calcium channel blocker, angiotensin receptor blocker or converting enzyme inhibitor, or serotonin-norepinephrine reuptake inhibitors. Approximately 70% of randomized participants took at least one prior migraine prevention medication with proven efficacy. Participants were not on concurrent medication during the study.
A total of 910 patients were randomized 1:1:1:1 to one of the four treatment groups (10 mg QD, 30 mg QD, 60 mg QD, or placebo). Efficacy analyses were based on the Modified Intent-to-Treat Population (mITT) of 873 patients.
All participants were instructed to take trial treatment orally at approximately the same time once daily for 12 weeks. To maintain the blinding, all participants took 3 tablets of trial treatment provided in identical blister cards: placebo (placebo 10 mg/placebo 30 mg/placebo 60 mg), atogepant 10 mg (atogepant 10 mg/placebo 30 mg/placebo 60 mg), atogepant 30 mg (placebo 10 mg, atogepant 30 mg, placebo 60 mg), and atogepant 60 mg (placebo 10 mg/placebo 30 mg/atogepant 60 mg). Participants, site personnel, and trial sponsor personnel were blinded to the treatment assignment. Tablet formulations for CGRP compounds are described, for example, in U.S. Pat. No. 10,117,936.
Participants were allowed to take acute treatments for migraine which included triptans, ergot derivatives, opioids, acetaminophen, non-steroidal anti-inflammatory drugs, and antiemetic agents. Participants were not allowed to take any preventive treatments for migraine 30 days prior to visit 1 and throughout the trial.
Efficacy assessments were recorded by the participant in an electronic diary at home or via eTablet at the trial site during clinic visits. […]

[1] = range across atogepant 10, 30, 60 mg groups

C[C@@H]1[C@H](c2c(F)ccc(F)c2F)C[C@H](NC(=O)c2cnc3c(c2)C[C@@]2(C3)C(=O)Nc3ncccc32)C(=O)N1CC(F)(F)F [atogepant]
100% reduction in 3-month average of monthly migraine days, responder n (%) (10 mg QD): 17 (7.9) % | ≥25% reduction in 3-month average of monthly migraine days, responder n (%) (10 mg QD): 73.4% | ≥75 reduction in 3-month average of monthly migraine days, responder n (%) (10 mg QD): 30.4% | Change from baseline in mean monthly acute medication use days, LS mean change (SE) (10 mg QD): -3.66 days | Change from baseline in mean monthly headache days, LS mean change (SE) (10 mg QD): -3.94 days | Change from baseline in mean monthly migraine days, LS mean change (SE) (10 mg QD): -3.69 days | Mean monthly acute medication use days, LSMD vs. placebo (95% CI) (10 mg QD): -1.31 days | Mean monthly headache days, LSMD vs. placebo (95% CI) (10 mg QD): -1.42 days | Mean monthly migraine days, LSMD vs. placebo (95% CI) (10 mg QD): -1.21 days | ≥50% reduction in 3-month average of monthly migraine days, odds ratio vs. placebo (95% CI) (10 mg QD): 3.06 | ≥50% reduction in 3-month average of monthly migraine days, responder n (%) (10 mg QD): 55.6% | ≥50% reduction in 3-month average of monthly migraine days, responder n (%) (10 mg QD, listed as Atogepant): (55.6) % | decrease in mean monthly headache days (10 mg): 3.94 days | decrease in monthly migraine days (10 mg): 3.69 days | decrease in mean monthly acute medication use days (10 mg): 3.66 days | proportion of participants who reported a migraine day (10 mg): 14.1% | LS mean change from baseline in mean headache days (10 mg): −3.2 | LS mean reduction from baseline in mean cumulative headache hours (10 mg): -23.3 h | LS mean change from baseline in acute medication use days (10 mg): −3.3 | LS mean change from baseline in moderate/severe headache days (10 mg): −3.0 | Mean change from baseline in weekly migraine days (10 mg): −0.77 | odds ratio vs placebo for reporting a migraine (10 mg): 0.49 | mean change from baseline in mean monthly migraine days (10 mg, weeks 1-4): −3.1 | mean change from baseline in mean monthly migraine days (10 mg, weeks 5-8): −3.7 | mean change from baseline in mean monthly migraine days (10 mg, weeks 9-12): −4.2 | 100% reduction in 3-month average of monthly migraine days, responder n (%) (30 mg QD): 11 (4.0) % | ≥25% reduction in 3-month average of monthly migraine days, responder n (%) (30 mg QD): 172 (77.1) % | ≥75 reduction in 3-month average of monthly migraine days, responder n (%) (30 mg QD): 66 (29.6) % | Change from baseline in mean monthly acute medication use days, LS mean change (SE) (30 mg QD): -3.68 days | Change from baseline in mean monthly headache days, LS mean change (SE) (30 mg QD): -4.04 days | Change from baseline in mean monthly migraine days, LS mean change (SE) (30 mg QD): -3.86 days | Mean monthly acute medication use days, LSMD vs. placebo (95% CI) (30 mg QD): -1.33 days | Mean monthly headache days, LSMD vs. placebo (95% CI) (30 mg QD): -1.53 days | Mean monthly migraine days, LSMD vs. placebo (95% CI) (30 mg QD): -1.38 days | ≥50% reduction in 3-month average of monthly migraine days, odds ratio vs. placebo (95% CI) (30 mg QD): 3.53 | ≥50% reduction in 3-month average of monthly migraine days, responder n (%) (30 mg QD): 58.7% | ≥50% reduction in 3-month average of monthly migraine days, responder n (%) (30 mg QD, listed as Atogepant): (58.7) % | decrease in mean monthly headache days (30 mg): 4.04 days | decrease in monthly migraine days (30 mg): 3.86 days | decrease in mean monthly acute medication use days (30 mg): 3.68 days | proportion of participants who reported a migraine day (30 mg): 10.8% | LS mean change from baseline in mean headache days (30 mg): −3.4 | LS mean reduction from baseline in mean cumulative headache hours (30 mg): -23.6 h | LS mean change from baseline in acute medication use days (30 mg): −3.4 | LS mean change from baseline in moderate/severe headache days (30 mg): −3.2 | Mean change from baseline in weekly migraine days (30 mg): −0.94 | odds ratio vs placebo for reporting a migraine (30 mg): 0.33 | mean change from baseline in mean monthly migraine days (30 mg, weeks 1-4): −3.4 | mean change from baseline in mean monthly migraine days (30 mg, weeks 5-8): −3.9 | mean change from baseline in mean monthly migraine days (30 mg, weeks 9-12): −4.3 | 100% reduction in 3-month average of monthly migraine days, responder n (%) (60 mg QD): 17 (7.7) % | ≥25% reduction in 3-month average of monthly migraine days, responder n (%) (60 mg QD): 180 (81.1) % | ≥75 reduction in 3-month average of monthly migraine days, responder n (%) (60 mg QD): 84 (37.8) % | Change from baseline in mean monthly acute medication use days, LS mean change (SE) (60 mg QD): -3.85 days | Change from baseline in mean monthly headache days, LS mean change (SE) (60 mg QD): -4.23 days | Change from baseline in mean monthly migraine days, LS mean change (SE) (60 mg QD): -4.20 days | Mean monthly acute medication use days, LSMD vs. placebo (95% CI) (60 mg QD): -1.50 days | Mean monthly headache days, LSMD vs. placebo (95% CI) (60 mg QD): -1.71 days | Mean monthly migraine days, LSMD vs. placebo (95% CI) (60 mg QD): -1.72 days | ≥50% reduction in 3-month average of monthly migraine days, odds ratio vs. placebo (95% CI) (60 mg QD): 3.82 | ≥50% reduction in 3-month average of monthly migraine days, responder n (%) (60 mg QD): 60.8% | ≥50% reduction in 3-month average of monthly migraine days, responder n (%) (60 mg QD, listed as Atogepant): (60.8) % | decrease in mean monthly headache days (60 mg): 4.23 days | decrease in monthly migraine days (60 mg): 4.20 days | decrease in mean monthly acute medication use days (60 mg): 3.85 days | proportion of participants who reported a migraine day (60 mg): 12.3% | LS mean change from baseline in mean headache days (60 mg): −3.8 | LS mean reduction from baseline in mean cumulative headache hours (60 mg): -25.1 h | LS mean change from baseline in acute medication use days (60 mg): −3.7 | LS mean change from baseline in moderate/severe headache days (60 mg): −3.8 | Mean change from baseline in weekly migraine days (60 mg): −1.03 | odds ratio vs placebo for reporting a migraine (60 mg): 0.39 | mean change from baseline in mean monthly migraine days (60 mg, weeks 1-4): −3.9 | mean change from baseline in mean monthly migraine days (60 mg, weeks 5-8): −4.2 | mean change from baseline in mean monthly migraine days (60 mg, weeks 9-12): −4.4 | times more likely than placebo to achieve ≥50% reduction in the 12-week average of MMDs (atogepant treated participants (all doses)): ≥ 3 times | participants with 100% reduction in MMDs across 12 weeks [1]: 5%-8% | participants with ≥25% reduction in MMDs across 12 weeks [1]: 73%-81% | participants with ≥50% reduction in mean MMDs across 12 weeks [1]: 56%-61% and 56-61% | participants with ≥75% reduction in MMDs across 12 weeks [1]: 30%-38%
